{"source": "patent US6558664B1", "about": "“Chondrocyte cell-lines” (Cell Factors plc, priority 1994, dated 2003)", "test_system": "chondrocyte cell-lines cloned from foetal femur", "assay": "Von Kossa staining of calcium mineralisation in monolayer cultures of immortalised foetal femur chondrocyte cell-lines", "assay_type": "cell-based, human", "settings": "three chondrocyte clones incubated at the oncogene's non-permissive temperature (39° C.) in the presence of 1,25(OH)2D3; in its absence cells do not actively mineralise calcium; FIG. 5", "procedure": "Foetal rib or femur tissue was taken at 7-9 weeks of gestation and placed in tissue culture flasks (Costar Limited, UK) in Eagle's minimum essential medium (Gibco Co Limited, UK) containing antibiotics and L-glutamine as well as 10% heat in activated foetal bovine serum. Cultured cells were maintained in a humidified atmosphere at 5% CO2 and 37° C. and medium changed at regular intervals (2-3 days). As is usual for primary cultures of resected tissue, cells within the sample move out from the body of the tissue, adhere to the flask surface, and replicate, potentially, to cover the whole surface of the tissue culture dish. After an initial period of, say, 2 weeks in primary culture. The cell population was transfected with a temperature sensitive mutant of the simium virus-40 derived large tumour (T) antigen using retroviral transduction.\nIn short, amphotropically packaged retroviral particles comprising this construct and a resistance marker to geneticin, G418 (kindly donated by Dr M O'Hare, Institute of Cancer Research, Royal Marsden Hospital, Lincoln's Inn, Sutton, Surrey, alternatively, essentially the same construct expressing a temperature sensitive mutant of the SV40-T oncogene was kindly donated by Professor Phil Gaillimore, CRC Laboratories, University of Birmingham, UK) was added to the medium together with polybrene (Sigma Chemicals) to a final concentration of 0.8 mg/ml. […]"}
{"smiles": "C=C1/C(=C\\C=C2/CCC[C@]3(C)[C@@H]([C@H](C)CCCC(C)(C)O)CC[C@@H]23)C[C@@H](O)C[C@@H]1O", "note": "[1,25(OH)2D3]", "values": [{"measurement": "calcium mineralisation (Von Kossa staining)", "value": "each clone actively mineralises calcium"}]}
